Consider 21 molecules from patent US12454510B2, “Isophthalamide compound and use thereof” (METISA BIOTECHNOLOGY CO., LTD, priority 2019, dated 2025).

Format in all cases: in vivo
One test deals with Chilo suppressalis. Kind of test: Insecticidal activity against Chilo suppressalis, sprayed Oryza sativa seedlings/stalks. The note with it: for Lethality rate (%, 3 days after the treatment) 1 mg/L / Lethality rate (%, 3 days after the treatment) 10 mg/L / Lethality rate (%, 3 days after the treatment) 0.5 mg/L: parallel comparison test, Table 6; for pest or weed control at 1 µg/mL: Chilo suppressalis, 72 h, dose 1 mg/L, 3 days after the treatment, 3rd instar larvae, read-out: lethality rate against Chilo suppressalis. As for the experimental part:
(§1) After being dissolved in a mixed solvent of acetone/methanol (1:1), the test compound was diluted with water containing 0.1% (wt) Tween 80 to the desired concentration.
(§2) With Leucania separata, Plutella xylostella, and Chilo suppressalis as targets, airbrush spray method was used for the determination of the insecticidal activity.
Determination method: 1) Preparation of Oryza sativa seedlings: Oryza sativa was cultivated in a constant temperature room (a temperature of 26-28V, a relative humidity of about 60-80%, and a light illumination of 16 hL:8 hD) in a small plastic cup with a diameter of 4.5 cm and a height of 4 cm, and when the Oryza sativa grew up to the 4-5 leaf stage, robust and consistent Oryza sativa seedlings were selected for chemical treatment, and 3 repetitions were performed for each treatment. 2) Preparation for test insects: Chilo suppressalis at 3rd instar larvae were raised continuously indoors. 3) The Oryza sativa stems were sprayed and insects were introduced. Spraying was performed uniformly on the whole plant of the Oryza sativa seedlings, with 15 ml of compound solution for each treatment. The blank control was treated first, and then the above operations were repeated in the order of the test concentration from low to high. After the Oryza sativa seedlings were sprayed, they were placed in a cool place to dry the liquid, and about 5 cm of stalks at the base of the stems were cut and fed to the test insects. A glass petri dish with a diameter of 90 mm was placed with filter paper at the bottom of the dish, and then was moisturized by adding water. After that, about 5 rice stalks and 10 larvae were placed in each dish, and the petri dish was sealed with a non-woven fabric and placed in a constant temperature room for cultivation. The number of remaining live insects was investigated 3 days after the treatment.

The test system of another test is Plutella xylostella. The test can be described thus: Insecticidal activity against Plutella xylostella, airbrush spray on cabbage leaf discs. The note with it: foliar, 72 h; for pest or weed control at 5 µg/mL: 5 mg/L, Table 5, read-out: Lethality rate (%, 3 days after the treatment) 5 mg/L; for pest or weed control at 0.5 µg/mL: 0.5 mg/L, Table 5, read-out: Lethality rate (%, 3 days after the treatment) 0.5 mg/L; for pest or weed control at 0.05 µg/mL: 0.05 mg/L, Table 5, read-out: Lethality rate (%, 3 days after the treatment) 0.05 mg/L. Here is the method: as §1, §2
(§3) Determination method: Cabbage leaves were punched into leaf discs with a diameter of 2 cm with a puncher, and Airbrush spray treatment was carried out at a pressure of 10 psi (approximately 0.7 kg/cm^2) on the front and back sides of each leaf disc, with a spray volume of the compound to be tested of 0.5 ml. After drying in the shade, 10 of 3rd instar larvae were introduced for each treatment, and each treatment was repeated 3 times for. After the treatment, it was placed in an observation room at 25° C. and a relative humidity of 60-70%, and 3 days after the treatment, the number of surviving insects was investigated, and the mortality rate was calculated.

The test system of a further test is Leucania separata. Kind of test: Insecticidal activity against Leucania separata, airbrush spray on corn leaf sections. The note with it: Mythimna separata, 72 h; dose 0.05 mg/L, 3 days after the treatment, 3rd instar larvae; read-out: lethality rate against Leucania separata. As for the experimental part:
as §1, §2
as §3, with “Corn” for “Cabbage”, “cut” for “punched”, “into” for “into leaf discs with a diameter of”, “leaf sections,” for “with a puncher,”, “section,” for “disc,”, “times.” for “times for.”

The mark [1] stands for this setting: 1 mg/L, parallel comparison test, Table 5, read-out: Lethality rate (%, 3 days after the treatment) 1 mg/L.
The mark [2] stands for this setting: dose 1 mg/L, 3 days after the treatment, 3rd instar larvae, read-out: lethality rate against Plutella xylostella.

Structures are written as SMILES. Read-outs that look alike come from different tables or passages of the source.

On to `N#CCCN(C(=O)c1cnccn1)c1cccc(C(=O)Nc2c(Br)cc(C(F)(C(F)(F)F)C(F)(F)F)cc2Br)c1F` [CK1, reference compound], for which, in the test with Chilo suppressalis, the “Lethality rate (%, 3 days after the treatment) 1 mg/L” value was found to be 0% and the “Lethality rate (%, 3 days after the treatment) 10 mg/L” value stood at 13.33%. In addition, the pest or weed control at 1 µg/mL in the test with Plutella xylostella (setting [1]) amounted to 0%. Also, in the test with Plutella xylostella (parallel comparison test), the pest or weed control at 5 µg/mL is 66.7%.
For the molecule `N#CCCN(C(=O)c1ccc(Cl)nc1)c1cccc(C(=O)Nc2c(Br)cc(C(F)(C(F)(F)F)C(F)(F)F)cc2Br)c1F` [Compound 1-1], in the test on Plutella xylostella (parallel comparison test), the pest or weed control at 0.5 µg/mL worked out at 6.67% and the pest or weed control at 5 µg/mL amounted to 93.3%. Moreover, the pest or weed control at 1 µg/mL with Plutella xylostella (setting [1]) is 50%.
`N#CCCN(C(=O)c1cccnc1)c1cccc(C(=O)Nc2c(Br)cc(C(F)(C(F)(F)F)C(F)(F)F)cc2Br)c1F` [Compound 1-2]: in the test on Chilo suppressalis, the “Lethality rate (%, 3 days after the treatment) 1 mg/L” value amounted to 0% and the “Lethality rate (%, 3 days after the treatment) 10 mg/L” value is given as 0%. For the same molecule, in the test on Plutella xylostella (parallel comparison test), the pest or weed control at 0.5 µg/mL was 0% and the pest or weed control at 5 µg/mL amounted to 90%. Also, the pest or weed control at 1 µg/mL with Plutella xylostella (setting [1]) is 30%.
`N#CCCN(C(=O)c1ccncc1)c1cccc(C(=O)Nc2c(Br)cc(C(F)(C(F)(F)F)C(F)(F)F)cc2Br)c1F` [Compound 1-3]: in the test with Plutella xylostella (parallel comparison test), the pest or weed control at 0.05 µg/mL was determined as 0%, the pest or weed control at 0.5 µg/mL stood at 13.3% and the pest or weed control at 5 µg/mL was determined as 100%. In addition, in the test on Plutella xylostella (setting [1]), the pest or weed control at 1 µg/mL was found to be 76.7%.
With `N#CCCN(C(=O)c1ccccn1)c1cccc(C(=O)Nc2c(Br)cc(C(F)(C(F)(F)F)C(F)(F)F)cc2Br)c1F` [Compound 1-4], the pest or weed control at 1 µg/mL in the test with Plutella xylostella (setting [1]) is 10%. Moreover, the pest or weed control at 5 µg/mL in the test with Plutella xylostella (parallel comparison test) was 60%.
Turning to `N#CCCN(C(=O)c1ccc(F)cn1)c1cccc(C(=O)Nc2c(Br)cc(C(F)(C(F)(F)F)C(F)(F)F)cc2Br)c1F` [Compound 1-5], in the test on Plutella xylostella (parallel comparison test), the pest or weed control at 0.05 µg/mL was 0%, the pest or weed control at 0.5 µg/mL amounted to 33.3% and the pest or weed control at 5 µg/mL turned out to be 83.3%. In the test on Plutella xylostella (setting [1]), the pest or weed control at 1 µg/mL amounted to 60%.
For the molecule `N#CCCN(C(=O)c1cnc(F)cn1)c1cccc(C(=O)Nc2c(Br)cc(C(F)(C(F)(F)F)C(F)(F)F)cc2Br)c1F` [Compound 1-6], in the test on Plutella xylostella (parallel comparison test), the pest or weed control at 0.05 µg/mL was determined as 0%, the pest or weed control at 0.5 µg/mL is 16.7% and the pest or weed control at 5 µg/mL was determined as 100%. The pest or weed control at 1 µg/mL in the test with Plutella xylostella (setting [1]) was found to be 60%.
The matching figures for `N#CCCN(C(=O)c1cnc(F)nc1)c1cccc(C(=O)Nc2c(Br)cc(C(F)(C(F)(F)F)C(F)(F)F)cc2Br)c1F` [Compound 1-7]: 0%, 20%, 100% and 73.3%.
As to `N#CCN(C(=O)c1ccc(F)nc1)c1cccc(C(=O)Nc2c(Br)cc(C(F)(C(F)(F)F)C(F)(F)F)cc2Br)c1F` [Compound 1], in the test with Leucania separata, the pest or weed control at 0.05 µg/mL was no less than 90%. Further, the pest or weed control at 1 µg/mL in the test on Chilo suppressalis and in the test on Plutella xylostella (setting [2]) was no less than 90% in each case.
For `N#CCCN(C(=O)c1cccnc1)c1cccc(C(=O)Nc2c(Br)cc(C(F)(C(F)(F)F)C(F)(F)F)cc2C(F)(F)F)c1F` [Compound 2-1], in the test with Plutella xylostella (parallel comparison test), the pest or weed control at 0.05 µg/mL worked out at 0%, the pest or weed control at 0.5 µg/mL turned out to be 20% and the pest or weed control at 5 µg/mL came out at 100%. For the same molecule, the pest or weed control at 1 µg/mL with Plutella xylostella (setting [1]) stood at 60%.
The matching figures for `N#CCCN(C(=O)c1ccncc1)c1cccc(C(=O)Nc2c(Br)cc(C(F)(C(F)(F)F)C(F)(F)F)cc2C(F)(F)F)c1F` [Compound 2-2]: 0%, 30%, 100% and 93.3%.
As for `N#CCCN(C(=O)c1ccccn1)c1cccc(C(=O)Nc2c(Br)cc(C(F)(C(F)(F)F)C(F)(F)F)cc2C(F)(F)F)c1F` [Compound 2-3], in the test on Plutella xylostella (parallel comparison test), the pest or weed control at 0.05 µg/mL is 0%, the pest or weed control at 0.5 µg/mL amounted to 10% and the pest or weed control at 5 µg/mL is 100%. The pest or weed control at 1 µg/mL in the test with Plutella xylostella (setting [1]) was found to be 40%.
The matching figures for `N#CCCN(C(=O)c1ccc(F)cn1)c1cccc(C(=O)Nc2c(Br)cc(C(F)(C(F)(F)F)C(F)(F)F)cc2C(F)(F)F)c1F` [Compound 2-4]: 33.3%, 63.3%, 100% and 90%.
Consider `N#CCCN(C(=O)c1cnccn1)c1cccc(C(=O)Nc2c(Br)cc(C(F)(C(F)(F)F)C(F)(F)F)cc2C(F)(F)F)c1F` [Compound 2-5], for which, in the test on Chilo suppressalis, the “Lethality rate (%, 3 days after the treatment) 0.5 mg/L” value worked out at 0%; the “Lethality rate (%, 3 days after the treatment) 1 mg/L” value amounted to 23.33%; the “Lethality rate (%, 3 days after the treatment) 10 mg/L” value worked out at 70%. For the same molecule, in the test with Plutella xylostella (parallel comparison test), the pest or weed control at 0.05 µg/mL came to 0%, the pest or weed control at 0.5 µg/mL stood at 23.3% and the pest or weed control at 5 µg/mL was 100%. For the same molecule, in the test with Plutella xylostella (setting [1]), the pest or weed control at 1 µg/mL came to 50%.
For the molecule `N#CCCN(C(=O)c1cnc(F)cn1)c1cccc(C(=O)Nc2c(Br)cc(C(F)(C(F)(F)F)C(F)(F)F)cc2C(F)(F)F)c1F` [Compound 2-6], in the test on Plutella xylostella (parallel comparison test), the pest or weed control at 0.05 µg/mL is 20%, the pest or weed control at 0.5 µg/mL came to 60% and the pest or weed control at 5 µg/mL came out at 100%. Also, in the test with Plutella xylostella (setting [1]), the pest or weed control at 1 µg/mL was 90%.
The corresponding values for `N#CCCN(C(=O)c1cnc(F)nc1)c1cccc(C(=O)Nc2c(Br)cc(C(F)(C(F)(F)F)C(F)(F)F)cc2C(F)(F)F)c1F` [Compound 2-7] are 0%, 53.3%, 100% and 96.7%.
Consider `N#CCCN(C(=O)c1ccc(F)nc1)c1cccc(C(=O)Nc2c(Br)cc(C(F)(C(F)(F)F)C(F)(F)F)cc2Br)c1F` [Compound 2], for which the pest or weed control at 0.05 µg/mL in the test with Leucania separata is no less than 90%. Also, in the test on Chilo suppressalis, the “Lethality rate (%, 3 days after the treatment) 0.5 mg/L” value is given as 86.67%; the “Lethality rate (%, 3 days after the treatment) 1 mg/L” value amounted to 100%; the “Lethality rate (%, 3 days after the treatment) 10 mg/L” value is reported as 100%; the pest or weed control at 1 µg/mL was no less than 90%. Further, in the test on Plutella xylostella (parallel comparison test), the pest or weed control at 0.05 µg/mL was 43.3%, the pest or weed control at 0.5 µg/mL was found to be 86.7% and the pest or weed control at 5 µg/mL came to 100%. Besides, the pest or weed control at 1 µg/mL in the test on Plutella xylostella (setting [1]) was 100%. Moreover, the pest or weed control at 1 µg/mL with Plutella xylostella (setting [2]) is no less than 90%.
On to `N#CCCCN(C(=O)c1ccc(F)nc1)c1cccc(C(=O)Nc2c(Br)cc(C(F)(C(F)(F)F)C(F)(F)F)cc2Br)c1F` [Compound 3], for which, in the test with Leucania separata, the pest or weed control at 0.05 µg/mL is no less than 90%. The pest or weed control at 1 µg/mL in the test on Chilo suppressalis and in the test on Plutella xylostella (setting [2]) was no less than 90% throughout.
Turning to `N#CCCCCN(C(=O)c1ccc(F)nc1)c1cccc(C(=O)Nc2c(Br)cc(C(F)(C(F)(F)F)C(F)(F)F)cc2Br)c1F` [Compound 4], in the test with Leucania separata, the pest or weed control at 0.05 µg/mL is no less than 90%. The pest or weed control at 1 µg/mL with Chilo suppressalis and with Plutella xylostella (setting [2]) was no less than 90% throughout.
Turning to `N#CCN(C(=O)c1ccc(F)nc1)c1cccc(C(=O)Nc2c(Br)cc(C(F)(C(F)(F)F)C(F)(F)F)cc2I)c1F` [Compound 5], the pest or weed control at 0.05 µg/mL in the test with Leucania separata was no less than 90%. Also, the pest or weed control at 1 µg/mL in the test with Chilo suppressalis and in the test on Plutella xylostella (setting [2]) was no less than 90% throughout.
As to `N#CCCN(C(=O)c1ccc(F)nc1)c1cccc(C(=O)Nc2c(Br)cc(C(F)(C(F)(F)F)C(F)(F)F)cc2I)c1F` [Compound 6], the pest or weed control at 0.05 µg/mL with Leucania separata was no less than 90%. In addition, the pest or weed control at 1 µg/mL in the test with Chilo suppressalis and in the test with Plutella xylostella (setting [2]) was no less than 90% each time.
